The nature of data set [1]: Intrinsic clearance in human liver microsomes. The data set is classed as ADME, Microsome. As to conditions: read-out: CLH. For orientation: Liver microsomes are vesicles of endoplasmic reticulum, rich in cytochrome P450 enzymes.
Data set [2] is described as follows: Aqueous solubility of the compound at pH 7.4. The data set is classed as physicochemical.
Data set [3] is described as follows: Aqueous solubility of the compound at pH 1. The data set is classed as physicochemical.
Data set [4] can be described thus: Aqueous solubility of the compound at pH 6.5. In kind it is physicochemical.

In brackets after ≈: the same amount, converted by molar mass.

These results are taken from ChEMBL document CHEMBL4364294 (J Med Chem, 2019).

With `O[C@@H](C[C@H]1c2c(F)cccc2-c2cncn21)[C@H]1CC[C@@H](O)CC1`, the predicted hepatic clearance in data set [1] is 12.7 mL/min/kg.

Regarding `O=C1CCC(C(O)CC2c3c(F)cccc3-c3cncn32)CC1` (stereo unspecified), the predicted hepatic clearance in data set [1] is 20.3 mL/min/kg.

Usually solubility stands for the dissolved amount per volume that the medium holds. As for `O=C(N[C@H]1CC[C@@H](C(O)CC2c3ccccc3-c3cncn32)CC1)c1ccccc1` (stereo partly specified), the solubility in data set [2] is 56 µM (≈ 22.5 µg/mL); in data set [3], 400 µM (≈ 161 µg/mL); in data set [4] it was 65 µM (≈ 26.1 µg/mL). Further, in data set [1], the predicted hepatic clearance is 8.23 mL/min/kg.
